In this assay the test system is IFN-a/Jak1 Tyk2. In words: Co-stimulation assay in lysed whole blood: IFNa (JAK1/TYK2) stimulated STAT1 phosphorylation. It counts as cell-based. To be noted: Homo sapiens, 20 min, 100 ng/mL IFNa (with 10 ng/mL GM-CSF), pSTAT by flow cytometry. In short, it runs like this: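 Lysed human whole blood (RBC-lysed, resuspended in cRPMI) pre-incubated with compound 1 h at 37 °C, then stimulated 20 min with IFNa 100 ng/mL plus GM-CSF 10 ng/mL (final). Fixed, permeabilised, stained for pSTAT1 (PE) and pSTAT5 (AF488); flow cytometry read-out, ≥5,000–10,000 cells acquired.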
On the technique in general: A flow cytometer gives signals particle by particle.

SMILES strings stand for the structures. Where only a bound is given, the exact number is not on record here.

One may read the IC50 as the midpoint of a concentration-inhibition curve. A higher IC50 goes with weaker potency in that assay.

For `CNC(=O)Nc1cnn2c(NC)cc(Nc3cccc4occc34)nc12` [Compound 104, 1-(5-(benzofuran-4-ylamino)-7-(methylamino)pyrazolo[1,5-a]pyrimidin-3-yl)-3-methylurea], the IC50 was below 1000 nM.
In turn, `CNC(=O)Nc1cnn2c(NC)cc(-c3c[nH]c4ncccc34)nc12` [Compound 88, 1-methyl-3-(7-(methylamino)-5-(1H-pyrrolo[2,3-b]pyridin-3-yl)pyrazolo[1,5-a]pyrimidin-3-yl)urea] gave a concentration for half-maximal inhibition (IC50) of 1000 to 10000 nM.
Turning to `CNc1cc(Nc2cccc3nccnc23)nc2c(NC(=O)NC3CC3O)cnn12` (stereo not shown) [Compound 30, 1-(2-hydroxycyclopropyl)-3-(7-(methylamino)-5-(quinoxalin-5-ylamino)pyrazolo[1,5-a]pyrimidin-3-yl)urea], the IC50 is at least 10000 nM.
The figure for `[2H]C([2H])([2H])Nc1cc(-c2cn(C3CCOC3)c3ncccc23)nc2c(NC(=O)NC)cnn12` (stereo not shown) [Compound 75, 1-methyl-3-(7-((methyl-d3)amino)-5-(1-(tetrahydrofuran-3-yl)-1H-pyrrolo[2,3-b]pyridin-3-yl)pyrazolo[1,5-a]pyrimidin-3-yl)urea] is below 1000 nM; for `CNC(=O)Nc1cnn2c(NC)cc(Nc3cccc4ccccc34)nc12` [Compound 160, 1-methyl-3-(7-(methylamino)-5-(naphthalen-1-ylamino)pyrazolo[1,5-a]pyrimidin-3-yl)urea] it is below 1000 nM; for `CNc1cc(-c2cn(C(C)C)c3ncccc23)nc2c(NC(=O)NC3CC3O)cnn12` (stereo not shown) [Compound 58, 1-(2-hydroxycyclopropyl)-3-(5-(1-isopropyl-1H-pyrrolo[2,3-b]pyridin-3-yl)-7-(methylamino)pyrazolo[1,5-a]pyrimidin-3-yl)urea] it is at least 10000 nM.
As to `CNc1cc(Nc2cc(F)cc3c2OCCO3)nc2c(NC(=O)NCCC(F)F)cnn12` [Compound 178, 1-(3,3-difluoropropyl)-3-(5-((7-fluoro-2,3-dihydrobenzo[b][1,4]dioxin-5-yl)amino)-7-(methylamino)pyrazolo[1,5-a]pyrimidin-3-yl)urea], the half-inhibitory concentration (IC50) was below 1000 nM.
`CNC(=O)Nc1cnn2c(NC)cc(Nc3cccc4c3N(C)CCO4)nc12` [Compound 163, 1-methyl-3-(5-((4-methyl-3,4-dihydro-2H-benzo[b][1,4]oxazin-5-yl)amino)-7-(methylamino)pyrazolo[1,5-a]pyrimidin-3-yl)urea] returned a half-maximal inhibitory concentration (IC50) of 1000 to 10000 nM.
The compound `C#CCNC(=O)Nc1cnn2c(NC)cc(Nc3cccc4c3OCCO4)nc12` [Compound 101, 1-(5-((2,3-dihydrobenzo[b][1,4]dioxin-5-yl)amino)-7-(methylamino)pyrazolo[1,5-a]pyrimidin-3-yl)-3-(prop-2-yn-1-yl)urea] showed an IC50 below 1000 nM.
Turning to `CNc1cc(Nc2cc(F)cc3c2OCCO3)nc2c(NC(=O)NC(C)C#N)cnn12` (stereo not shown) [Compound 120, 1-(1-cyanoethyl)-3-(5-((7-fluoro-2,3-dihydrobenzo[b][1,4]dioxin-5-yl)amino)-7-(methylamino)pyrazolo[1,5-a]pyrimidin-3-yl)urea], the half-inhibitory concentration (IC50) was below 1000 nM.
The figure for `CNC(=O)Nc1cnn2c(NC)cc(Nc3cccc4c3OCCN4C)nc12` [Compound 62, 1-methyl-3-(5-((4-methyl-3,4-dihydro-2H-benzo[b][1,4]oxazin-8-yl)amino)-7-(methylamino)pyrazolo[1,5-a]pyrimidin-3-yl)urea] is 1000 to 10000 nM; for `CNC(=O)Nc1cnn2c(NC)cc(Nc3cc(OC)cc(OC)c3)nc12` [Compound 70, 1-(5-((3,5-dimethoxyphenyl)amino)-7-(methylamino)pyrazolo[1,5-a]pyrimidin-3-yl)-3-methylurea] it is below 1000 nM.
Consider `CNC(=O)Nc1cnn2c(NC)cc(Nc3cccc(-c4cnn(C)c4)c3OC)nc12` [Compound 19, 1-(5-((2-methoxy-3-(1-methyl-1H-pyrazol-4-yl)phenyl)amino)-7-(methylamino)pyrazolo[1,5-a]pyrimidin-3-yl)-3-methylurea], for which the concentration for half-maximal inhibition (IC50) lay within 1000 to 10000 nM.

The values are drawn from US11753411B2, “Substituted pyrazolo[1,5-a]pyrimidines as TYK2 pseudokinase ligands” (Ventyx Biosciences, Inc., priority 2019, dated 2023).
